In patent US8216800B2, “Substrates for detecting peptidase activity and methods using the substrates” (Biomerieux, priority 2007, dated 2012):

How the values were obtained:
Test in all cases: Peptidase activity detection on Columbia agar containing substrate
Type in all cases: cell-based
[1] = tested on: Bacillus subtilis NCTC 9372; set-up: key: − = no fluorescence detected; e = trace of fluorescence; +/− = weak fluorescence; + = medium fluorescence; ++ = strong fluorescence; NG = No Growth; settings: substrate 100 mg/l, 24 hours at 37° C., UV 360-365 nm
Procedure: (§1) 40 mg of each substrate are dissolved in 4 ml of dimethylformamide (DMF). This solution is completely taken up in 400 ml of Columbia agar autoclaved beforehand and kept molten at 50° C. The final concentration for each substrate is therefore 100 mg/l. Each of the media is distributed into 90 mm Petri dishes in a proportion of 20 ml per dish.
(§2) 18 microorganism strains derived from collections and belonging to various species of bacteria and of yeasts are inoculated onto these media by semi-quantitative isolation of 10 μl of a suspension at 0.5 McFarland diluted to 1/20. The media are incubated for 24 hours at 37° C., and then the colonies formed are examined visually under UV illumination at 360-365 nm.

[2] = tested on: Candida albicans ATCC 90028; set-up: key: − = no fluorescence detected; e = trace of fluorescence; +/− = weak fluorescence; + = medium fluorescence; ++ = strong fluorescence; NG = No Growth; settings: substrate 100 mg/l, 24 hours at 37° C., UV 360-365 nm
Procedure: as §1, §2

[3] = tested on: Candida glabrata NCPF3943; set-up: key: − = no fluorescence detected; e = trace of fluorescence; +/− = weak fluorescence; + = medium fluorescence; ++ = strong fluorescence; NG = No Growth; settings: substrate 100 mg/l, 24 hours at 37° C., UV 360-365 nm
Procedure: as §1, §2

[4] = tested on: Enterobacter cloacae NCTC 11936; set-up: key: − = no fluorescence detected; e = trace of fluorescence; +/− = weak fluorescence; + = medium fluorescence; ++ = strong fluorescence; NG = No Growth; settings: substrate 100 mg/l, 24 hours at 37° C., UV 360-365 nm
Procedure: as §1, §2

[5] = tested on: Enterococcus faecalis NCTC 775; set-up: key: − = no fluorescence detected; e = trace of fluorescence; +/− = weak fluorescence; + = medium fluorescence; ++ = strong fluorescence; NG = No Growth; settings: substrate 100 mg/l, 24 hours at 37° C., UV 360-365 nm
Procedure: as §1, §2

[6] = tested on: Enterococcus faecium NCTC 11047; set-up: key: − = no fluorescence detected; e = trace of fluorescence; +/− = weak fluorescence; + = medium fluorescence; ++ = strong fluorescence; NG = No Growth; settings: Enterococcus faecium NCTC 11047 (Table 2); substrate 100 mg/l, 24 hours at 37° C., UV 360-365 nm
Procedure: as §1, §2

[7] = tested on: Escherichia coli NCTC 10418; set-up: key: − = no fluorescence detected; e = trace of fluorescence; +/− = weak fluorescence; + = medium fluorescence; ++ = strong fluorescence; NG = No Growth; settings: substrate 100 mg/l, 24 hours at 37° C., UV 360-365 nm
Procedure: as §1, §2

[8] = tested on: Listeria monocytogenes NCTC 11994; set-up: key: − = no fluorescence detected; e = trace of fluorescence; +/− = weak fluorescence; + = medium fluorescence; ++ = strong fluorescence; NG = No Growth; settings: substrate 100 mg/l, 24 hours at 37° C., UV 360-365 nm
Procedure: as §1, §2

[9] = tested on: Providencia rettgeri NCTC 7475; set-up: key: − = no fluorescence detected; e = trace of fluorescence; +/− = weak fluorescence; + = medium fluorescence; ++ = strong fluorescence; NG = No Growth; settings: substrate 100 mg/l, 24 hours at 37° C., UV 360-365 nm
Procedure: as §1, §2

[10] = tested on: Salmonella Typhimurium NCTC 74; set-up: key: − = no fluorescence detected; e = trace of fluorescence; +/− = weak fluorescence; + = medium fluorescence; ++ = strong fluorescence; NG = No Growth; settings: substrate 100 mg/l, 24 hours at 37° C., UV 360-365 nm
Procedure: as §1, §2

[11] = tested on: Serratia marcescens NCTC 10211; set-up: key: − = no fluorescence detected; e = trace of fluorescence; +/− = weak fluorescence; + = medium fluorescence; ++ = strong fluorescence; NG = No Growth; settings: substrate 100 mg/l, 24 hours at 37° C., UV 360-365 nm
Procedure: as §1, §2

[12] = tested on: Staphylococcus aureus NCTC 11939; set-up: key: − = no fluorescence detected; e = trace of fluorescence; +/− = weak fluorescence; + = medium fluorescence; ++ = strong fluorescence; NG = No Growth; settings: Staphylococcus aureus (MRSA) NCTC 11939; substrate 100 mg/l, 24 hours at 37° C., UV 360-365 nm
Procedure: as §1, §2

[13] = tested on: Staphylococcus aureus NCTC 6571; set-up: key: − = no fluorescence detected; e = trace of fluorescence; +/− = weak fluorescence; + = medium fluorescence; ++ = strong fluorescence; NG = No Growth; settings: substrate 100 mg/l, 24 hours at 37° C., UV 360-365 nm
Procedure: as §1, §2

[14] = tested on: Staphylococcus epidermidis NCTC 11047; set-up: key: − = no fluorescence detected; e = trace of fluorescence; +/− = weak fluorescence; + = medium fluorescence; ++ = strong fluorescence; NG = No Growth; settings: substrate 100 mg/l, 24 hours at 37° C., UV 360-365 nm
Procedure: as §1, §2

[15] = tested on: Streptococcus pyogenes NCTC 8306; set-up: key: − = no fluorescence detected; e = trace of fluorescence; +/− = weak fluorescence; + = medium fluorescence; ++ = strong fluorescence; NG = No Growth; settings: substrate 100 mg/l, 24 hours at 37° C., UV 360-365 nm
Procedure: as §1, §2

[16] = tested on: Yersinia enterocolitica NCTC 11176; set-up: key: − = no fluorescence detected; e = trace of fluorescence; +/− = weak fluorescence; + = medium fluorescence; ++ = strong fluorescence; NG = No Growth; settings: substrate 100 mg/l, 24 hours at 37° C., UV 360-365 nm
Procedure: as §1, §2

[17] = tested on: Burkholderia cepacia 1222; set-up: key to fluorescence intensity: − = no fluorescence detected; e = trace of fluorescence; +/− = weak fluorescence; + = medium fluorescence; ++ = strong fluorescence; NG = No Growth; settings: for fluorescence produced: B. cepacia strain; for fluorescence intensity: Burkholderia cepacia 1222, substrate 100 mg/l, 24 hours at 37° C., UV 360-365 nm
Procedure: as §1, §2

[18] = tested on: Pseudomonas aeruginosa NCTC 10662; set-up: key to fluorescence intensity: − = no fluorescence detected; e = trace of fluorescence; +/− = weak fluorescence; + = medium fluorescence; ++ = strong fluorescence; NG = No Growth; settings: for fluorescence intensity: Pseudomonas aeruginosa NCTC 10662, substrate 100 mg/l, 24 hours at 37° C., UV 360-365 nm; for fluorescence produced: Pseudomonas aeruginosa strain
Procedure: as §1, §2

[19] = tested on: Staphylococcus aureus strains; settings: the two Staphylococcus aureus strains
Procedure: as §1, §2

[20] = tested on: Citrobacter freundii 46262 (wild); set-up: key: − = no fluorescence detected; e = trace of fluorescence; +/− = weak fluorescence; + = medium fluorescence; ++ = strong fluorescence; NG = No Growth; settings: substrate 100 mg/l, 24 hours at 37° C., UV 360-365 nm
Procedure: as §1, §2

[21] = tested on: Enterococcus faecium NCTC 7171; set-up: key: − = no fluorescence detected; e = trace of fluorescence; +/− = weak fluorescence; + = medium fluorescence; ++ = strong fluorescence; NG = No Growth; settings: Enterococcus faecium NCTC 7171 (Table 3); substrate 100 mg/l, 24 hours at 37° C., UV 360-365 nm
Procedure: as §1, §2

[22] = tested on: Morganella morganii 462403 (wild); set-up: key: − = no fluorescence detected; e = trace of fluorescence; +/− = weak fluorescence; + = medium fluorescence; ++ = strong fluorescence; NG = No Growth; settings: substrate 100 mg/l, 24 hours at 37° C., UV 360-365 nm
Procedure: as §1, §2

| Structure (SMILES) | fluorescence intensity [1] | fluorescence intensity [4] | fluorescence intensity [5] | fluorescence intensity [6] | fluorescence intensity [8] | fluorescence intensity [10] | fluorescence intensity [11] | fluorescence intensity [15] | fluorescence intensity [17] | fluorescence intensity [18] | fluorescence intensity [2] | fluorescence intensity [3] | fluorescence intensity [7] | fluorescence intensity [9] | fluorescence intensity [12] | fluorescence intensity [13] | fluorescence intensity [14] | fluorescence intensity [16] | also measured |
| --- | --- | --- | --- | --- | --- | --- | --- | --- | --- | --- | --- | --- | --- | --- | --- | --- | --- | --- | --- |
| NCC(=O)Nc1ccccc1-c1nc2ccccc2o1 [Substrate 3] | +/− | ++ | − | NG | +/− | − | ++ | NG | + | +/− | NG | NG | ++ | ++ | + | + | NG | +/− | fluorescence produced [17]: medium blue fluorescence |
| C[C@H](N)C(=O)Nc1ccccc1-c1nc2cc(Cl)ccc2o1 [Substrate 4] | NG | + | +/− | − | − | NG | ++ | − | − | +/− | − | − | NG^2 | + | − | − | − | + | fluorescence produced [18]: weak violet fluorescence; fluorescence produced [19]: no fluorescence was detected |
| NCCC(=O)Nc1ccccc1-c1nc2ccccc2o1 [Substrate 2] | NG | + | +/− | +/− | ε | − | + | NG | + | + | − | − | + | +/− | − | − | − | +/− | fluorescence produced [17]: green fluorescence |

Further lines, with some results ahead:

| fluorescence intensity [1] | fluorescence intensity [4] | fluorescence intensity [5] | fluorescence intensity [6] | fluorescence intensity [8] | fluorescence intensity [10] | fluorescence intensity [11] | fluorescence intensity [15] | fluorescence intensity [17] | fluorescence intensity [18] | Structure (SMILES) | fluorescence intensity [2] | fluorescence intensity [3] | fluorescence intensity [7] | fluorescence intensity [9] | fluorescence intensity [12] | fluorescence intensity [13] | fluorescence intensity [14] | fluorescence intensity [16] | also measured |
| --- | --- | --- | --- | --- | --- | --- | --- | --- | --- | --- | --- | --- | --- | --- | --- | --- | --- | --- | --- |
| − | + | − | − | − | +/− | − | NG | − | − | C[C@H](N)C(=O)Nc1ccc(Cl)cc1-c1nc2ccccc2s1 [Substrate 19] | NG | NG | + | + | − | − | NG |  | fluorescence produced [18]: negative |
| NG | NG | NG | NG | NG | NG | ++ | NG | NG | ++ | NCCC(=O)Nc1ccccc1-c1nc2ccccc2s1 [Substrate 18] | NG | NG | ++ | NG | NG | NG | NG | NG |  |
| − | + | +/− | +/− | +/− | + | + | − | + | +/− | COc1cc(NC(=O)CCN)c(-c2nc3ccccc3o2)cc1OC [Substrate 11] | − | − | + | + | − | + | − | +/− |  |
| − | +/− | − |  | − | − | +/− | − | − | − | C[C@H](N)C(=O)Nc1ccccc1-c1nc2ccccc2n1CCc1ccccc1 [Substrate 14] | − | − | − | − | − | − | − | − | fluorescence intensity [20]: −; fluorescence intensity [21]: −; fluorescence intensity [22]: − |
